Assay results taken from patent US20250197864A1, “LNCRNA TRANSCRIPTS IN MELANOMAGENESIS” (The Regents of the University of California, priority 2021, published 2025).

Columns and labels:
Test in all cases: Cell viability assay (ATP quantitation)
[1] = system: H929 multiple myeloma cell line; assay type: cell-based; details: 50 nM, 5 days, vs non-targeting control
Procedure, shortened: (§1)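 Seeded at 0.7-2×10^3 cells/well, cells were treated one day later with oligonucleotides (typically 50 nM, Lipofectamine 3000) and/or MEK inhibitor. Total luminescence was read 3 days (synergy experiments) or 5 days (ASO alone) after transfection.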

[2] = system: SW480 colon carcinoma cell line; assay type: cell-based; details: 50 nM, 5 days, vs non-targeting control
Procedure, shortened: as §1

[3] = system: XG-1 multiple myeloma cell line; assay type: cell-based; details: 50 nM, 5 days, vs non-targeting control
Procedure, shortened: as §1

[4] = system: Sk-Mel-5 melanoma cell line; assay type: cell-based; details: 50 nM, 5 days, vs non-targeting control
Procedure, shortened: as §1

[5] = system: MaMel30 melanoma cell line; assay type: cell-based; details: 50 nM, 5 days, vs non-targeting control
Procedure, shortened: as §1

AV1 melanoma cell line = assay type: cell-based; details: 50 nM, 5 days, vs non-targeting control
Procedure, shortened: as §1

[6] = system: T98G Glioblastoma cell line; assay type: cell-based; details: 50 nM, 5 days, vs non-targeting control
Procedure, shortened: as §1

[7] = system: U87-MG Glioblastoma cell line; assay type: cell-based; details: 50 nM, 5 days, vs non-targeting control
Procedure, shortened: as §1

[8] = system: L363 multiple myeloma cell line; assay type: cell-based; details: 50 nM, 5 days, vs non-targeting control
Procedure, shortened: as §1

AV4 melanoma cell line = assay type: cell-based; details: 50 nM, 5 days, vs non-targeting control
Procedure, shortened: as §1

[9] = system: H2228 lung cancer cell line; assay type: cell-based; details: 50 nM, 5 days, vs non-targeting control
Procedure, shortened: as §1

[10] = system: SW1271 lung cancer cell line; assay type: cell-based; details: 50 nM, 5 days, vs non-targeting control
Procedure, shortened: as §1

[11] = system: A-172 Glioblastoma cell line; assay type: cell-based; details: 50 nM, 5 days, vs non-targeting control
Procedure, shortened: as §1

[12] = system: H82 lung cancer cell line; assay type: cell-based; details: 50 nM, 5 days, vs non-targeting control
Procedure, shortened: as §1

[13] = system: Sk-N-AS Neuroblastoma cell line; assay type: cell-based; details: 50 nM, 5 days, vs non-targeting control
Procedure, shortened: as §1

[14] = system: HCT116 colon carcinoma cell line; assay type: cell-based; details: 50 nM, 5 days, vs non-targeting control
Procedure, shortened: as §1

[15] = system: U138-MG Glioblastoma cell line; assay type: cell-based; details: 50 nM, 5 days, vs non-targeting control
Procedure, shortened: as §1

[16] = system: U20S osteosarcoma cell line; assay type: cell-based; details: 50 nM, 5 days, vs non-targeting control
Procedure, shortened: as §1

[17] = system: WM3060 melanoma cell line; assay type: cell-based; details: 50 nM, 5 days, vs non-targeting control
Procedure, shortened: as §1

[18] = system: Hs852.T primary melanoma cell line; assay type: cell-based, human; details: 50 nM, 5 days (120 hrs), vs non-targeting control
Procedure, shortened: as §1

MM415 melanoma cell line = assay type: cell-based, human; details: 50 nM, 5 days (120 hrs), vs non-targeting control
Procedure, shortened: as §1

[19] = system: AV5 primary melanoma cell line; assay type: cell-based, human; details: 50 nM, 5 days (120 hrs), vs non-targeting control
Procedure, shortened: as §1

D04 melanoma cell line = assay type: cell-based, human; details: 50 nM, 5 days (120 hrs), vs non-targeting control
Procedure, shortened: as §1

[20] = system: WM3629 melanoma cell line; assay type: cell-based, human; details: 50 nM, 5 days (120 hrs), vs non-targeting control
Procedure, shortened: as §1

[21] = system: WM3211 melanoma cell line; assay type: cell-based, human; details: 50 nM, 5 days (120 hrs), vs non-targeting control
Procedure, shortened: as §1

VMM39 melanoma cell line = assay type: cell-based, human; details: 50 nM, 5 days (120 hrs), vs non-targeting control
Procedure, shortened: as §1

[22] = system: Sk-Mel-28 melanoma cell line; assay type: cell-based, human; details: 50 nM, 5 days (120 hrs), vs non-targeting control
Procedure, shortened: as §1

[23] = system: Sk-Mel-2 melanoma cell line; assay type: cell-based, human; details: 50 nM, 5 days (120 hrs), vs non-targeting control
Procedure, shortened: as §1

[24] = system: WM1366 melanoma cell line; assay type: cell-based, human; details: 50 nM, 5 days (120 hrs), vs non-targeting control
Procedure, shortened: as §1

[25] = system: MM415RM trametinib resistant melanoma cell line; assay type: cell-based; details: 50 nM, 5 days, vs non-targeting control
Description: (§2) Human melanoma cell line VMM39 was purchased from American Type Culture Collection (ATCC). Human melanoma cell lines D04, MM415, WM1366, WM3629, WM3211, Sk-Mel-2 and Sk-Mel-28 were a generous gift from Boris Bastian at the University of California, San Francisco. Primary human melanoma cell line Hs852.T was purchased from the Cell Culture Core Facility (CCCF) at the University of California, San Francisco. Primary human melanoma cell line AV5 was obtained from metastasis of a melanoma patient. All experimental protocols were approved by UCSF Human Research Protection Program Institutional Review Board (IRB #12-0948), all patients signed informed consent, and methods were carried out in accordance with relevant guidelines and regulations. Resistant cell lines DO4RM, MM415RM, Sk-Mel-2RM and WM3629RM were established as previously described. [Sanlorenzo, M. et al., The lincRNA MIRAT binds to IQGAPI and modulates the MAPK pathway in NRAS mutant melanoma. Sci Rep 8, 10902 (2018).] Primary human melanocytic cell lines (PHM) from infant foreskin of five healthy donors were available in our cell repository and pooled. Melanoma cell lines were maintained in RPMI 1640 media supplemented with 10% (vol/vol) heat inactivated fetal bovine serum. Melanocytes were maintained in M254 medium with HMGS supplements (1× final solution). All cell lines were incubated at 37° C. under 5% CO2.
(§3) EsiRNA, siRNA and ASO GapmeRs were transfected in a final concentration of 50 nM unless mentioned otherwise and the transfection reagent Lipofectamine 3000 (2 ul/ml) was added according to the manufacturer's instructions.
(§4) Dependent on cell doubling time, 0.7-2×10^^3 cells were seeded in 96 well plates. 1 day after seeding cells were incubated in media with oligonucleotide concentration and/or MEKi and transfection reagent. 3 (synergy experiments) or 5 (solely ASO) days after transfection Total luminescence was measured on the SynergyHT plate reader (BioTek) using Gen5 software.

[26] = system: D04RM trametinib resistant melanoma cell line; assay type: cell-based; details: 50 nM, 5 days, vs non-targeting control
Description: as §2, §3, §4

[27] = system: WM3629RM trametinib resistant melanoma cell line; assay type: cell-based; details: 50 nM, 5 days, vs non-targeting control
Description: as §2, §3, §4

[28] = system: Sk-Mel-2-RM trametinib resistant melanoma cell line; assay type: cell-based; details: 50 nM, 5 days, vs non-targeting control
Description: as §2, §3, §4

Measured: cell viability decrease

ACATGGATTGGTAGTG (QIAGEN GapmeR, modification pattern not given here) [SEQ ID NO: 17, Antisense oligonucleotide targeting RP11-7011.3-001, 002 and 003]
significant cell viability decrease: all assays above
